Reference: US5840684A, “Glycopeptide antibiotic derivatives” (Eli Lilly and Company, priority 1995, dated 1998)
Converted amounts (≈) assume the structure as drawn.

Key:
[1] = test system: vancomycin-resistant enterococci; experiment: broth micro-dilution, mean geometric MIC; type: cell-based, Enterococcus faecium and Enterococcus faecalis; settings: enterococci, 24-hour incubation
[2] = test system: Staphylococcus aureus SA1199B; type: cell-based
Description: (§1) The MIC's were determined using a standard broth micro-dilution assay.

[3] = test system: Staphylococcus aureus S13E; type: cell-based
Description: as §1

[4] = test system: Staphylococcus aureus X778; experiment: broth micro-dilution MIC; type: cell-based
Description: as §1

[5] = test system: Streptococcus pyogenes C203; experiment: broth micro-dilution MIC; type: cell-based
Description: as §1

[6] = test system: Staphylococcus aureus 447; experiment: broth micro-dilution MIC; type: cell-based
Description: as §1

[7] = test system: Staphylococcus aureus 491; experiment: broth micro-dilution MIC; type: cell-based
Description: as §1

[8] = test system: Staphylococcus aureus SA1199A; experiment: broth micro-dilution MIC; type: cell-based
Description: as §1

[9] = test system: Staphylococcus aureus X400; experiment: broth micro-dilution MIC; type: cell-based
Description: as §1

[10] = test system: Entercoccus faecium 180-1; experiment: broth micro-dilution MIC; type: cell-based
Description: as §1

[11] = test system: Staphylococcus aureus 446; experiment: broth micro-dilution MIC; type: cell-based
Description: as §1

[12] = test system: Entercoccus faecium 276; experiment: broth micro-dilution MIC; type: cell-based
Description: as §1

[13] = test system: Staphylococcus aureus SA1199; experiment: broth micro-dilution MIC; type: cell-based
Description: as §1

[14] = test system: Staphylococcus aureus 489; experiment: broth micro-dilution MIC; type: cell-based
Description: as §1

[15] = test system: vancomycin-susceptible enterococci; experiment: broth micro-dilution, mean geometric MIC; type: cell-based, Enterococcus faecium and Enterococcus faecalis; settings: enterococci, 24-hour incubation
[16] = test system: Staphylococcus epidermidis 270; experiment: broth micro-dilution MIC; type: cell-based
Description: (§2) The formula I compounds have in vitro and in vivo activity against Gram-positive pathogenic bacteria. The MIC's were determined using a standard broth micro-dilution assay.

[17] = test system: Staphylococcus haemolyticus 415; experiment: broth micro-dilution MIC; type: cell-based
Description: as §2

[18] = test system: Staphylococcus haemolyticus 105; experiment: broth micro-dilution MIC; type: cell-based
Description: as §2

[19] = test system: Entercoccus faecium 180; experiment: broth micro-dilution MIC; type: cell-based; settings: Entercoccus faecium 180
Description: as §2

[20] = test system: Haemophilus influenzae RD; experiment: broth micro-dilution MIC; type: cell-based; settings: Haemophilus influenzae RD
Description: as §2

[21] = test system: Escherichia coli EC14; experiment: broth micro-dilution MIC; type: cell-based
Description: as §2

[22] = test system: Entercoccus faecium 2041; experiment: broth micro-dilution MIC; type: cell-based; settings: Entercoccus faecium 2041
Description: as §2

[23] = test system: Enterococcus gallinarum 245; experiment: broth micro-dilution MIC; type: cell-based; settings: Enterococcus gallinarum 245
Description: as §2

[24] = test system: Streptococcus pneumoniae P1; experiment: broth micro-dilution MIC; type: cell-based
Description: as §2

CC(C)CC(C(=O)NC1C(=O)NC(CC(N)=O)C(=O)NC2C(=O)NC3C(=O)NC(C(=O)NC(C(=O)O)c4cc(O)cc(O)c4-c4cc3ccc4O)C(OC3CC(C)(N)C(O)C(C)O3)c3ccc(c(Cl)c3)Oc3cc2cc(c3OC2OC(CO)C(O)C(O)C2OC2CC(C)(NCc3cccc4c3OCO4)C(O)C(C)O2)Oc2ccc(cc2Cl)C1O)N(C)Cc1cccc2c1OCO2 (stereo not drawn) [Compound 269]
mean geometric MIC, Vancomycin Resistant Strains [1]: 38 µg/mL
MIC [2]: 0.5 µg/mL (≈ 0.269 µM)
MIC [3]: 1 µg/mL (≈ 0.537 µM)
MIC [4]: 0.25 µg/mL (≈ 0.134 µM)
MIC [5]: ≤ 0.06 µg/mL
MIC [6]: 4 µg/mL (≈ 2.15 µM)
MIC [7]: 1 µg/mL (≈ 0.537 µM)
MIC [8]: ≤ 0.06 µg/mL
MIC [9]: 0.5 µg/mL (≈ 0.269 µM)
MIC [10]: 0.125 µg/mL (≈ 0.0672 µM)
MIC [11]: 2 µg/mL (≈ 1.07 µM)
MIC [12]: 0.125 µg/mL (≈ 0.0672 µM)
MIC [13]: 0.25 µg/mL (≈ 0.134 µM)
MIC [14]: 0.25 µg/mL (≈ 0.134 µM)
mean geometric MIC, Vancomycin Sensitive Strains [15]: 1.1 µg/mL
MIC [16]: 8 µg/mL (≈ 4.3 µM)
MIC [17]: 4 µg/mL (≈ 2.15 µM)
MIC [18]: 8 µg/mL (≈ 4.3 µM)
MIC [19]: 4 µg/mL (≈ 2.15 µM)
MIC [20]: > 64 µg/mL
MIC [21]: > 64 µg/mL
MIC [22]: 0.125 µg/mL (≈ 0.0672 µM)
MIC [23]: 4 µg/mL (≈ 2.15 µM)
MIC [24]: ≤ 0.06 µg/mL

CC(C)CC(C(=O)NC1C(=O)NC(CC(N)=O)C(=O)NC2C(=O)NC3C(=O)NC(C(=O)NC(C(=O)O)c4cc(O)cc(O)c4-c4cc3ccc4O)C(OC3CC(C)(N)C(O)C(C)O3)c3ccc(c(Cl)c3)Oc3cc2cc(c3OC2OC(CO)C(O)C(O)C2OC2CC(C)(NCc3ccc(Cc4ccccc4)cc3)C(O)C(C)O2)Oc2ccc(cc2Cl)C1O)N(C)Cc1ccc(Cc2ccccc2)cc1 (stereo not drawn) [Compound 270]
mean geometric MIC, Vancomycin Resistant Strains [1]: 2.8 µg/mL
MIC [2]: 2 µg/mL (≈ 1.02 µM)
MIC [3]: 2 µg/mL (≈ 1.02 µM)
MIC [4]: 0.5 µg/mL (≈ 0.256 µM)
MIC [5]: ≤ 0.06 µg/mL
MIC [6]: 0.5 µg/mL (≈ 0.256 µM)
MIC [7]: 0.25 µg/mL (≈ 0.128 µM)
MIC [8]: ≤ 0.06 µg/mL
MIC [9]: 1 µg/mL (≈ 0.512 µM)
MIC [10]: ≤ 0.06 µg/mL
MIC [11]: 1 µg/mL (≈ 0.512 µM)
MIC [12]: 1 µg/mL (≈ 0.512 µM)
MIC [13]: 1 µg/mL (≈ 0.512 µM)
MIC [14]: 0.25 µg/mL (≈ 0.128 µM)
mean geometric MIC, Vancomycin Sensitive Strains [15]: 0.66 µg/mL
MIC [16]: 1 µg/mL (≈ 0.512 µM)
MIC [17]: 2 µg/mL (≈ 1.02 µM)
MIC [18]: 4 µg/mL (≈ 2.05 µM)
MIC [19]: 0.25 µg/mL (≈ 0.128 µM)
MIC [20]: > 64 µg/mL
MIC [21]: > 64 µg/mL
MIC [22]: 0.5 µg/mL (≈ 0.256 µM)
MIC [23]: 2 µg/mL (≈ 1.02 µM)
MIC [24]: ≤ 0.06 µg/mL

CC(C)CC(C(=O)NC1C(=O)NC(CC(N)=O)C(=O)NC2C(=O)NC3C(=O)NC(C(=O)NC(C(=O)O)c4cc(O)cc(O)c4-c4cc3ccc4O)C(OC3CC(C)(N)C(O)C(C)O3)c3ccc(c(Cl)c3)Oc3cc2cc(c3OC2OC(CO)C(O)C(O)C2OC2CC(C)(NCc3cccc(Oc4ccccc4)c3)C(O)C(C)O2)Oc2ccc(cc2Cl)C1O)N(C)Cc1cccc(Oc2ccccc2)c1 (stereo not drawn) [Compound 271]
mean geometric MIC, Vancomycin Resistant Strains [1]: 5.7 µg/mL
MIC [2]: 1 µg/mL (≈ 0.511 µM)
MIC [3]: 1 µg/mL (≈ 0.511 µM)
MIC [4]: 0.5 µg/mL (≈ 0.256 µM)
MIC [5]: ≤ 0.06 µg/mL
MIC [6]: 2 µg/mL (≈ 1.02 µM)
MIC [7]: 0.5 µg/mL (≈ 0.256 µM)
MIC [8]: 0.5 µg/mL (≈ 0.256 µM)
MIC [9]: 2 µg/mL (≈ 1.02 µM)
MIC [10]: 0.125 µg/mL (≈ 0.0639 µM)
MIC [11]: 1 µg/mL (≈ 0.511 µM)
MIC [12]: 1 µg/mL (≈ 0.511 µM)
MIC [13]: 2 µg/mL (≈ 1.02 µM)
MIC [14]: 1 µg/mL (≈ 0.511 µM)
mean geometric MIC, Vancomycin Sensitive Strains [15]: 0.33 µg/mL
MIC [16]: 1 µg/mL (≈ 0.511 µM)
MIC [17]: 2 µg/mL (≈ 1.02 µM)
MIC [18]: 2 µg/mL (≈ 1.02 µM)
MIC [19]: 2 µg/mL (≈ 1.02 µM)
MIC [20]: > 64 µg/mL
MIC [21]: > 64 µg/mL
MIC [22]: 2 µg/mL (≈ 1.02 µM)
MIC [23]: 2 µg/mL (≈ 1.02 µM)
MIC [24]: ≤ 0.06 µg/mL

CNC(CC(C)C)C(=O)NC1C(=O)NC(CC(N)=O)C(=O)NC2C(=O)NC3C(=O)NC(C(=O)NC(C(=O)O)c4cc(O)cc(O)c4-c4cc3ccc4O)C(OC3CC(C)(NCc4ccc(C(F)(F)F)cc4)C(O)C(C)O3)c3ccc(c(Cl)c3)Oc3cc2cc(c3OC2OC(CO)C(O)C(O)C2OC2CC(C)(NCc3ccc(C(F)(F)F)cc3)C(O)C(C)O2)Oc2ccc(cc2Cl)C1O (stereo not drawn) [Compound 272]
mean geometric MIC, Vancomycin Resistant Strains [1]: 4.75 µg/mL
MIC [2]: ≤ 0.06 µg/mL
MIC [3]: 0.125 µg/mL (≈ 0.0655 µM)
MIC [4]: 0.125 µg/mL (≈ 0.0655 µM)
MIC [5]: ≤ 0.06 µg/mL
MIC [6]: 0.25 µg/mL (≈ 0.131 µM)
MIC [7]: 0.25 µg/mL (≈ 0.131 µM)
MIC [8]: ≤ 0.06 µg/mL
MIC [9]: 0.125 µg/mL (≈ 0.0655 µM)
MIC [10]: ≤ 0.06 µg/mL
MIC [11]: 0.25 µg/mL (≈ 0.131 µM)
MIC [12]: 0.125 µg/mL (≈ 0.0655 µM)
MIC [13]: 0.25 µg/mL (≈ 0.131 µM)
MIC [14]: 0.125 µg/mL (≈ 0.0655 µM)
mean geometric MIC, Vancomycin Sensitive Strains [15]: 0.072 µg/mL
MIC [16]: ≤ 0.06 µg/mL
MIC [17]: 0.5 µg/mL (≈ 0.262 µM)
MIC [18]: 0.125 µg/mL (≈ 0.0655 µM)
MIC [19]: 0.5 µg/mL (≈ 0.262 µM)
MIC [20]: > 64 µg/mL
MIC [21]: > 64 µg/mL
MIC [22]: 0.125 µg/mL (≈ 0.0655 µM)
MIC [23]: 0.5 µg/mL (≈ 0.262 µM)
MIC [24]: ≤ 0.06 µg/mL

CC(C)CC(C(=O)NC1C(=O)NC(CC(N)=O)C(=O)NC2C(=O)NC3C(=O)NC(C(=O)NC(C(=O)O)c4cc(O)cc(O)c4-c4cc3ccc4O)C(OC3CC(C)(N)C(O)C(C)O3)c3ccc(c(Cl)c3)Oc3cc2cc(c3OC2OC(CO)C(O)C(O)C2OC2CC(C)(NCc3ccncc3)C(O)C(C)O2)Oc2ccc(cc2Cl)C1O)N(C)Cc1ccncc1 (stereo not drawn) [Compound 274]
mean geometric MIC, Vancomycin Resistant Strains [1]: > 128 µg/mL
MIC [2]: 2 µg/mL (≈ 1.13 µM)
MIC [3]: 4 µg/mL (≈ 2.25 µM)
MIC [4]: 4 µg/mL (≈ 2.25 µM)
MIC [5]: 0.125 µg/mL (≈ 0.0704 µM)
MIC [6]: 16 µg/mL (≈ 9.02 µM)
MIC [7]: 4 µg/mL (≈ 2.25 µM)
MIC [8]: 1 µg/mL (≈ 0.563 µM)
MIC [9]: 8 µg/mL (≈ 4.51 µM)
MIC [10]: 0.5 µg/mL (≈ 0.282 µM)
MIC [11]: 8 µg/mL (≈ 4.51 µM)
MIC [12]: 1 µg/mL (≈ 0.563 µM)
MIC [13]: 2 µg/mL (≈ 1.13 µM)
MIC [14]: 2 µg/mL (≈ 1.13 µM)
mean geometric MIC, Vancomycin Sensitive Strains [15]: 9.2 µg/mL
MIC [16]: 16 µg/mL (≈ 9.02 µM)
MIC [17]: > 64 µg/mL
MIC [18]: > 64 µg/mL
MIC [19]: > 64 µg/mL
MIC [20]: > 64 µg/mL
MIC [21]: > 64 µg/mL
MIC [22]: 1 µg/mL (≈ 0.563 µM)
MIC [23]: > 64 µg/mL
MIC [24]: ≤ 0.06 µg/mL
